Assay results from patent US20260335277A1, “CHLOROTONIL DERIVATIVES” (priority 2023, published 2026).
≈ marks a conversion by molar mass, not a printed value. Where two headings read alike, the source gives them in different places.

Key:
zebrafish larvae = experiment: Toxicity in zebrafish larvae (MTC / IC50); assay type: in vivo; settings: for IC50 in zebrafish larvae: exposed 3 days post fertilization, monitored 48 h; for Selectivity Index S. aureus: zebrafish IC50 / MIC S. aureus Newman
Description: (§1) For toxicity screening, zebrafish larvae were exposed three days post fertilization and monitored for 48 h until five days post fertilization. All malformations and pathophysiological phenotypes were noted and used to determine the inhibitory concentration (IC50) of the respective derivative against zebrafish larvae. The selectivity index (SI) was then calculated using the IC50 and the MIC of either S. aureus or P. falciparum 3D7.

[1] = system: S. aureus N315 (methicillin-resistant, MRSA); experiment: MIC testing (broth microdilution, EUCAST); assay type: cell-based; settings: for MIC: Staphylococcus aureus, MRSA
Description: (§2) Minimal inhibitory concentration (MIC) of the compounds in the present invention was determined using broth microdilution performed according to EUCAST guidelines (ISO20776-1:2019). S. aureus ATCC29213 and E. faecalis ATCC29212 served as quality control strains.

S. aureus Newman = experiment: MIC testing (broth microdilution, EUCAST); assay type: cell-based; settings: for MIC: Staphylococcus aureus, NEWMAN
Description: as §2

S. epidermidis DSM-28765 = experiment: MIC testing (broth microdilution, EUCAST); assay type: cell-based; settings: for MIC S. epiderm.: S. epidermidis DSM-28765; for MIC: Staphylococcus epidermidis, DSM28765, S. epidermidis DSM-28765, read-out: MIC S. epiderm.
Description: as §2

[2] = system: E. faecium DSM-17050 (vancomycin-resistant, VRE); experiment: MIC testing (broth microdilution, EUCAST); assay type: cell-based; settings: for MIC: Enterococcus faecium
Description: as §2

E. faecium DSM-20477 = experiment: MIC testing (broth microdilution, EUCAST); assay type: cell-based; settings: for MIC E. faecium: E. faecium DSM-20477; for MIC: Enterococcus faecium, DSM20477, E. faecium DSM-20477
Description: as §2

E. faecalis ATCC-29212 = experiment: MIC testing (broth microdilution, EUCAST); assay type: cell-based; settings: for MIC E. faecalis: E. faecalis ATCC-29212; for MIC: Enterococcus faecalis, ATCC29212, E. faecalis ATCC-29212
Description: as §2

[3] = system: clinical isolates of S. aureus; experiment: MIC 50/90 profiling in multidrug-resistant clinical isolates; assay type: cell-based; settings: Staphylococcus aureus; S. aureus clinical isolates (n = 100)
Description: as §2
(§3) Activity of dehalogenil against multidrug-resistant clinical isolates of S. aureus (n=100) and Enterococcus spp. […] Compared to the standard of care (linezolid, daptomycin and tigecyclin), dehalogenil MIC90 was lowered in both pathogens by 20-40-fold with unimodal distribution indicating no pre-existing resistances.

E. faecium = experiment: as above; assay type: cell-based; settings: Enterococcus faecium; for MIC: read-out: MIC range; for MIC50 / MIC90: E. faecium (n = 98)
Description: as §2, §3

S. aureus USA300LAC = experiment: S. aureus blood infection (sepsis) model; assay type: in vivo, mouse (CD-1); settings: 60 mg/kg
Description: Dehalogenil was further tested in a Staphylococcus blood infection (sepsis) model, alongside linezolid as reference compound. Mice were infected using S. aureus USA300LAC (10^8 CFU/animal) and subsequently treated with a daily total of 5, 10 or 25 mg/kg SC dehalogenil, split into two doses (8 h interval, BID regimen) until 3 days post infection.
Mice were infected intravenously using S. aureus USA300LAC (10^8 CFU/mice). Compounds were administered twice daily starting day 0 until day 3, with the daily total dose indicated. Curves were compared via Mantel-Cox test (Prism), with ***: p<0.001 and **: p<0.01.

[4] = system: mature gametocytes (stages IV and V); experiment: Activity against mature gametocytes (stage IV-V), bioluminescence assay; assay type: cell-based, P. falciparum
Description: Activity against gametocytes was determined using an in vitro bioluminescence assay as described previously (doi.org/10.1371/journal.pone.0035019).

[5] = Toxicity in zebrafish larvae (MTC / IC50); assay type: in vivo; settings: zebrafish, zebrafish larvae
Description: as §1

[6] = zebrafish IC50 / MIC S. aureus Newman, read-out: Selectivity Index S. aureus
[7] = zebrafish IC50 vs P. falciparum 3D7, read-out: Selectivity Index P. falc 3D7

SMILES: CC1=CC(C)C2C(C=CC3C(C)C=CC=CC(C)OC(=O)CC(=O)C(Cl)=C(O)C32)C1 (stereo not shown) [ChB1-2′DM, 2′Demethylchlorotonil]
- IC50 in zebrafish larvae (zebrafish larvae): 33.24 µM
- Selectivity Index S. aureus (zebrafish larvae): 35.8
- MIC MRSA [1]: 0.4 µg/mL (≈ 0.928 µM)
- MIC S. aureus (S. aureus Newman): 0.4 µg/mL (≈ 0.928 µM)
- MIC S. epiderm. (S. epidermidis DSM-28765): 1.6 µg/mL (≈ 3.71 µM)
- MIC VRE [2]: 0.4 µg/mL (≈ 0.928 µM)
- MIC E. faecium (E. faecium DSM-20477): 0.4 µg/mL (≈ 0.928 µM)
- MIC E. faecalis (E. faecalis ATCC-29212): 0.4 µg/mL (≈ 0.928 µM)

SMILES: CN(C)c1cc(NC(=O)CNC(C)(C)C)c(O)c2c1C[C@H]1C[C@H]3[C@H](N(C)C)C(=O)C(C(N)=O)=C(O)[C@@]3(O)C(=O)C1=C2O [tigecyclin]
- MIC [3]: 1 to 16 µg/mL (≈ 1.71 to 27.3 µM)
- MIC50 [3]: 4 µg/mL (≈ 6.83 µM)
- MIC90 [3]: 8 µg/mL (≈ 13.7 µM)
- MIC (E. faecium): 0.5 to 16 µg/mL (≈ 0.854 to 27.3 µM)
- MIC50 (E. faecium): 2 µg/mL (≈ 3.41 µM)
- MIC90 (E. faecium): 2 µg/mL (≈ 3.41 µM)

SMILES: CC(=O)NC[C@H]1CN(c2ccc(N3CCOCC3)c(F)c2)C(=O)O1 [linezolid]
- MIC50 [3]: 4 µg/mL (≈ 11.9 µM)
- MIC90 [3]: 8 µg/mL (≈ 23.7 µM)
- MIC (E. faecium): 0.5 to 64 µg/mL (≈ 1.48 to 190 µM)
- MIC50 (E. faecium): 4 µg/mL (≈ 11.9 µM)
- MIC90 (E. faecium): 4 µg/mL (≈ 11.9 µM)
- survival (S. aureus USA300LAC): survival of all animals

SMILES: CC1=CC(C)C2C(C=CC3C(C)C=CC=CC(C)OC(=O)C(C)C(=O)CC(=O)C32)C1 (stereo not drawn) [dehalogenil-2′Epi]
- IC50 [4]: 0.0252 ± 0.00163 µM
- selectivity ratio [5, 6]: 78.9
- selectivity ratio [5, 7]: 1370
- IC50 in zebrafish larvae (zebrafish larvae): 38.46 µM
- MIC MRSA [1]: 0.1 µg/mL (≈ 0.244 µM)
- MIC S. aureus (S. aureus Newman): 0.2 µg/mL (≈ 0.487 µM)
- MIC S. epiderm. (S. epidermidis DSM-28765): 0.4 µg/mL (≈ 0.974 µM)
- MIC VRE [2]: 0.1 µg/mL (≈ 0.244 µM)
- MIC E. faecium (E. faecium DSM-20477): 0.05 µg/mL (≈ 0.122 µM)
- MIC E. faecalis (E. faecalis ATCC-29212): 0.2 µg/mL (≈ 0.487 µM)

SMILES: CC1=CC(C)C2C(C=CC3C(C)C=CC=CC(C)OC(=O)C(C)(C)C(=O)C(Cl)=C(O)C32)C1 (stereo not shown) [ChB1-2′Me]
- IC50 in zebrafish larvae (zebrafish larvae): 12.31 µM
- Selectivity Index S. aureus (zebrafish larvae): 14.1
- Selectivity Index P. falc 3D7 (zebrafish larvae; zebrafish IC50 vs P. falciparum 3D7): 114.0
- MIC MRSA [1]: 0.8 µg/mL (≈ 1.74 µM)
- MIC S. aureus (S. aureus Newman): 0.4 µg/mL (≈ 0.871 µM)
- MIC S. epiderm. (S. epidermidis DSM-28765): 0.8 µg/mL (≈ 1.74 µM)
- MIC VRE [2]: 0.4 µg/mL (≈ 0.871 µM)
- MIC E. faecium (E. faecium DSM-20477): 0.2 µg/mL (≈ 0.436 µM)
- MIC E. faecalis (E. faecalis ATCC-29212): 0.8 µg/mL (≈ 1.74 µM)

SMILES: CC1=CC(C)C2C(C=CC3C(C)C=CC=CC(C)OC(=O)C(C)C(=O)C(Cl)=C(O)C32)C1 (stereo not shown) [ChB1, reference compound]
- MIC MRSA [1]: 0.8 µg/mL (≈ 1.8 µM)
- MIC S. aureus (S. aureus Newman): 0.2 µg/mL (≈ 0.449 µM)
- MIC S. epiderm. (S. epidermidis DSM-28765): 0.4 µg/mL (≈ 0.899 µM)
- MIC VRE [2]: 0.1 µg/mL (≈ 0.225 µM)
- MIC E. faecium (E. faecium DSM-20477): 0.1 µg/mL (≈ 0.225 µM)
- MIC E. faecalis (E. faecalis ATCC-29212): 0.2 µg/mL (≈ 0.449 µM)

SMILES: CC1=CC(C)C2C(C=CC3C(C)C=CC=CC(C)OC(=O)CC(=O)CC(=O)C32)C1 (stereo not shown) [dehalogenil-2′DM, 2′Demethyldehalogenil]
- IC50 ([4]; Plasmodium falciparum): 0.499 ± 0.0868 µM
- selectivity ratio [5, 6]: 13.4
- selectivity ratio [5, 7]: 66.2
- IC50 in zebrafish larvae (zebrafish larvae): 27.03 µM
- MIC [1]: 0.8 µg/mL (≈ 2.02 µM)
- MIC (S. aureus Newman): 0.8 µg/mL (≈ 2.02 µM)
- MIC (S. epidermidis DSM-28765): 3.2 µg/mL (≈ 8.07 µM)
- MIC [2]: 0.8 µg/mL (≈ 2.02 µM)
- MIC (E. faecium DSM-20477): 0.8 µg/mL (≈ 2.02 µM)
- MIC (E. faecalis ATCC-29212): 1.6 µg/mL (≈ 4.04 µM)

SMILES: CC1=C[C@@H](C)[C@H]2[C@@H]3C(=O)[C@@](C)(Cl)C(=O)[C@H](C)C(=O)O[C@@H](C)/C=C/C=C\[C@@H](C)[C@@H]3C=C[C@@H]2C1 [ChA-4′Me]
- MIC [1]: 1.6 µg/mL (≈ 3.49 µM)
- MIC (S. aureus Newman): 1.6 µg/mL (≈ 3.49 µM)
- MIC (S. epidermidis DSM-28765): > 1.6 µg/mL
- MIC [2]: 0.8 µg/mL (≈ 1.74 µM)
- MIC (E. faecium DSM-20477): 0.8 µg/mL (≈ 1.74 µM)
- MIC (E. faecalis ATCC-29212): 1.6 µg/mL (≈ 3.49 µM)
